Patent US20210252045A1, “Method for inactivating and removing disease-related levels of sulfane sulfur from affected biological tissues with special relevance to Covid-19 virus infection” (priority 2019, published 2021)

Assays:
[1] = tested on: Rhinovirus of the common cold; assay: Ingesting sulfite at first symptoms of the common cold (inventor's self-administration); assay type: in vivo; details: oral, 250 mg every 4 hours for 24 hours, started at first symptoms (within 48 hours); the inventor themself
Procedure: It appears to be important that this be started within 48 hours of first appearance of the symptoms although data is lacking on using the agent later in the course of the infection. The stated quantities are effective but might be refined. The total quantity in the above example is equivalent to drinking 4 bottles of some wines or ingesting 500 gm of certain dried fruits. Application of this example to Covid 19 would be a first TREATMENT for this disease.

[2] = sulfur dioxide gas in water at pH above 3; cited from earlier work

SMILES | course of common cold symptoms after ingestion [1] | pKa2 [2]
O=S([O-])S(=O)(=O)[O-].[K+].[K+] [K. metabisulfite] | symptoms clear without progressing to a full cold | 
O=S(O)O [sulfurous acid] |  | ~7
